Experimental data taken from PMC6838876 (Heliyon, 2019).
Marks after values point to notes of the source that are not given here.

Tests used:
[1] = Urinary excretion rate after oral gavage to non-fasted rats (HPLC of urine, free and conjugated forms); type: in vivo, Male Wistar rats; settings: 40 mg/kg BW gavage; for Total urinary excretion rate at 48 h: all free and conjugated HAs
Experimental: The urine samples were stored at -80 °C until analysis. The rats were fed the AIN-93M diet throughout the experiment. This study was approved by the Animal Care Committee of Kindai University (permit number KABT-24-002), and the animals were maintained in accordance with the guidelines. Sample size, dose, and duration of urine collection were determined on the basis of our preliminary experiments.
The HA composition in urine was determined by the method described by Zhao et al. with a modification. […] The urine sample (20 μL) was added to 360 μL of acetic acid buffer (pH 5.0) containing 10 μg/mL sinapinic acid (internal standard) and 20 μL of acetic acid buffer (pH 5.0). The mixed solution was filtered through a 0.20 μm disposable syringe filter unit. The filtrate was analyzed by HPLC to quantify free forms of the HAs. Enzymatic hydrolysis was used to determine conjugated forms (glucuronidated and/or sulfated forms). The urine sample (20 μL) was added to 360 μL of acetic acid buffer (pH 5.0) containing 10 μg/mL sinapinic acid (internal standard) and 20 μL of β-glucuronidase type H-2 (containing both β-glucuronidase and sulfatase activity). […] The mixture was saturated with nitrogen gas and incubated at 37 °C for 2 h, followed by filtration through a 0.20 μm disposable syringe filter unit. The filtrate was analyzed by HPLC and the total amount of HAs (free forms and conjugated forms) was quantified. The conjugated HA levels were calculated by subtracting the amount of HA free forms from the total amount of HAs. […] The separation was performed using a 0.1% (v/v) trifluoroacetic acid–methanol solution (75:25, v/v) as the mobile phase at a flow rate of 1.0 mL/min at 40 °C. The injection volume was 10 μL. p-Coumaric acid was detected at 309 nm and the other HAs as well as sinapinic acid were detected at 325 nm based on the maximum absorbance. The urinary excretion rate was calculated as the percentage of the dose (mol/mol).

[2] = rats fed supplemented diet; cited from earlier work
[3] = parameters: method as in PMID 12097677, PMID 12730422; settings: cited from earlier work
[4] = parameters: method as in PMID 16608213; settings: fasted rats, cited from earlier work

O=C(O)/C=C/c1ccc(O)c(O)c1 [Caffeic acid, caffeic acid]
Caffeic acid urinary excretion rate ([1]; urine 0-6 h): 7.1 % of the dose

O=C(/C=C/c1ccc(O)c(O)c1)O[C@@H]1C[C@](O)(C(=O)O)C[C@@H](O)[C@H]1O [Chlorogenic acid, chlorogenic acid]
Chlorogenic acid excreted in the urine at 48 h ([1]; urine 0-48 h, free form, mean ± SE n = 4, 40 mg/kg): 0.04 ± 0.005^a % of the dose
Chlorogenic acid excreted in the urine at 48 h ([1]; urine 0-48 h, free form, mean ± SE n = 4, listed as chlorogenic acid, 40 mg/kg): 0.04 % of the dose
Urinary excretion of chlorogenic acid or the total amount of caffeic, ferulic, and isoferulic acids [2]: less than 1 % of the chlorogenic acid intake

COc1cc(/C=C/C(=O)O)ccc1O [Ferulic acid, ferulic acid]
Total urinary excretion rate at 48 h ([1]; mean ± SE n = 4, 40 mg/kg): 73.2 ± 2.1 % of the dose
Total urinary excretion rate at 48 h ([1]; mean ± SE n = 4, listed as ferulic acid, 40 mg/kg): 73.2 % of the dose
Ferulic acid excreted in the urine at 48 h ([1]; urine 0-48 h, free form, mean ± SE n = 4): 3.01 ± 0.38^a % of the dose
Ferulic acid conjugates excreted in the urine at 48 h ([1]; urine 0-48 h, mean ± SE n = 4): 70.2 ± 6.8^b % of the dose
Ferulic acid conjugates urinary excretion rate ([1]; urine 0-6 h): 64.1 % of the dose
Ferulic acid urinary excretion rate ([1]; urine 0-6 h): 3.0 % of the dose
Percentage of conjugates in the total urinary excretion ([1]; urine at 48 h): 96%
Ingested ferulic acid recovered as conjugated forms in the urine [3]: 50–70%

O=C(O)/C=C/c1ccc(O)cc1 [p-Coumaric acid, p-coumaric acid]
p-Coumaric acid urinary excretion rate ([1]; urine 0-6 h): 14.2 % of the dose
Ingested p-coumaric acid found in the urine as an intact form ([4]; gavage): 23%
Time after gavage within which the majority of p-coumaric acid was detected in urine [4]: ≤ 4 h
